We go through 17 compounds from ChEMBL document CHEMBL5137028, “Progress and Challenges in Targeting the SARS-CoV-2 Papain-like Protease” (J Med Chem, 2022).

pEC50, pIC50: −log10 of the molar value.

The test system of series [1] is SARS-CoV-2. As to the kind of experiment: Antiviral activity against SARS-CoV-2 infected in African green monkey Vero cells assessed as viral growth inhibition by cell culture based assay. In kind it is functional, organism-based. The following applies: Severe acute respiratory syndrome coronavirus 2, Vero.
Series [2] is described as follows: Cytotoxicity against African green monkey Vero E6 cells assessed as cell viability treated for 24 to 48 hrs by prestoblue staining based assay. Conditions: chlorocebus sabaeus, time 24-48 hrs. In kind it is toxicity, Vero C1008.
Series [3] has as its system SARS-CoV-2. As to the kind of experiment: Antiviral activity against SARS-CoV-2 USA-WA1/2020 isolate infected in human Caco2 expressing hACE2 cells assessed as viral growth inhibition at MOI of 0.1 treated for 24 hrs by fluorescence microscopy. The format is functional, organism-based. Conditions: Severe acute respiratory syndrome coronavirus 2, USA-WA1/2020 isolate, Caco-2, 24 h.

Series [4] has as its system SARS-CoV-2. Description: Antiviral activity against SARS-CoV-2 infected in human HeLa cells expressing hACE2 assessed as inhibition of viral replication at MOI of 0.3 treated for 46 hrs by fluorescence microscopy. In kind it is functional, organism-based. The following applies: Severe acute respiratory syndrome coronavirus 2, HeLa.
For a further series, the system named is HeLa. As to the kind of experiment: Cytotoxicity against human HeLa cells expressing hACE2 assessed as cell viability treated for 72 hrs by Cell Titer Glo assay. The format is functional. A general note: ATP-based viability assays read luminescence as a measure of living cells.
The subject of series [5] is SARS-CoV-2. As to the kind of experiment: Antiviral activity against SARS-CoV-2 USA-WA1/2020 infected in African green monkey Vero E6 cells assessed as viral growth inhibition pretreated for 1 hr followed by infection at MOI of 0.1 measured after 48 hrs by Cell Titer Glo assay. The following applies: Severe acute respiratory syndrome coronavirus 2, USA-WA1/2020, Vero C1008. In kind it is functional, organism-based.

In series [6] the test system is SARS-CoV-2. Description: Antiviral activity against SARS-CoV-2 infected in African green monkey Vero cells assessed as viral growth inhibition measured after 72 hrs by LDH assay. In kind it is functional, organism-based. The following applies: Severe acute respiratory syndrome coronavirus 2, Vero.
Series [7] can be described thus: Stability in human liver S9 fraction assessed as half life. In kind it is ADME, subcellular.
Series [8] is described as follows: Stability in human liver microsome assessed as half life. In kind it is ADME. Conditions: liver microsomes.
Series [9] relates to SARS-CoV-2. As to the kind of experiment: Antiviral activity against SARS-CoV-2 infected in African green monkey Vero cells assessed as viral growth inhibition incubated for 1 hr by crystal violet staining based plaque reduction assay. In kind it is functional, organism-based. Conditions: Severe acute respiratory syndrome coronavirus 2, Vero. On the technique in general: In a plaque reduction assay, fewer plaques than in the control indicate reduced infectivity or spread.

The target in series [10] is Replicase polyprotein 1ab (Severe acute respiratory syndrome coronavirus 2) (UniProt P0DTD1). Description: Inhibition of SARS-CoV-2 papain-like protease nsp3 (745 to 1061 residues) expressed in Escherichia coli.
A short description of series [11]: Cytotoxicity against African green monkey Vero E6 cells assessed as cell viability treated for 24 hrs by CCK8 assay. The format is toxicity, cell-based, Vero C1008. Conditions: chlorocebus sabaeus. A general note: Tetrazolium assays rely on reduction of a dye to a coloured formazan, in cell work by metabolically active cells.
The nature of series [12]: Antiviral activity against HCoV-OC43 assessed as viral growth inhibition. The format is functional, Human coronavirus OC43.
Series [13] can be described thus: Cytotoxicity against African green monkey Vero cells assessed as cell viability. In kind it is toxicity, cell-based. The following applies: chlorocebus sabaeus.
Series [14] is described as follows: Selectivity index, ratio of CC50 for African green monkey Vero cells to EC50 for SARS-CoV-2 infected in African green monkey Vero cells. In kind it is toxicity. The following applies: read-out: Ratio CC50/EC50.
The test system of series [15] is Middle East respiratory syndrome-related coronavirus. As to the kind of experiment: Antiviral activity against MERS-CoV assessed as viral growth inhibition. In kind it is functional, organism-based.
Series [16] in a line: Selectivity index, ratio of CC50 for human A549 cells expressing ACE2 to EC50 for SARS-CoV-2 infected in human A549 cells expressing ACE2. The format is toxicity, cell-based. The following applies: read-out: Ratio CC50/EC50.
Series [17] concerns SARS-CoV-2. Description: Antiviral activity against SARS-CoV-2 infected in human A549 cells expressing ACE2 assessed as viral growth inhibition. In kind it is functional, organism-based. Conditions: Severe acute respiratory syndrome coronavirus 2, A549.
Another series has as its system A549. Description: Cytotoxicity against human A549 cells expressing ACE2 assessed as cell viability. In kind it is functional.
Series [18] relates to SARS-CoV-2. As to the kind of experiment: Antiviral activity against SARS-CoV-2 infected in African green monkey Vero cells assessed as viral growth inhibition. In kind it is functional, organism-based. Conditions: Severe acute respiratory syndrome coronavirus 2, Vero.
Series [19] is described as follows: Cytotoxicity against African green monkey Vero E6 cells assessed as cell viability. In kind it is toxicity, cell-based, Vero C1008. The following applies: chlorocebus sabaeus.

Broadly, the pEC50 is the negative decadic logarithm of the EC50, by convention in mol/L. Take `Cc1cc2nc3c(=O)[nH]c(=O)nc-3n(C)c2cc1C=O`: the pEC50 in the series on SARS-CoV-2 [1] is 4.70.
A word on the CC50: it is the concentration at which the toxic effect on the cells reaches its halfway point. Regarding `O=C1c2c(O)cccc2[C@H]([C@@H]2O[C@H](CO)[C@@H](O)[C@H](O)[C@H]2O)c2cc(CO)cc(O)c21`, in [2], the cytotoxic concentration (CC50) is more than 100 µM.
As for `O=C1c2c(O)cccc2[C@@H]([C@@H]2O[C@H](CO)[C@@H](O)[C@H](O)[C@H]2O)c2cc(CO)cc(O)c21`, in [2], the CC50 was more than 100 µM.
With `C[C@H](c1cccc2ccccc12)N(C)Cc1c[nH]c2ccccc12`, the pEC50 in the series with SARS-CoV-2 [3] was 4.92.
`C[C@H](c1cccc2ccccc12)N1CCC(C(=O)NCc2cc(F)cc(NC(=O)N3CCN(C)CC3)c2)CC1`: the pEC50 with SARS-CoV-2 [4] was 6.74. The CC50 with HeLa was more than 10 µM.
For the compound `C[C@@H](NC(=O)c1ccccc1CCC(=O)NNC(=O)CCl)c1cccc2ccccc12`, the pEC50 in the series with SARS-CoV-2 [5] was 4.47.
Regarding `COc1cc(CNC(=O)C2CCN(C(C)c3cccc4ccccc34)CC2)ccn1` (stereo not drawn), the pEC50 in the series with SARS-CoV-2 [6] is more than 4.96.
What is called half-life is how long it takes for the measured level to halve. Consider `COC(=O)/C=C/C(=O)NNC(=O)CCc1ccccc1C(=O)N[C@H](C)c1cccc2ccccc12`, for which the half-life came to 60 min in [7] and 50 min in series [8].
On to `Cc1ccc(N)cc1C(=O)N[C@H](C)c1cccc2ccccc12`, for which the values for the pEC50 with SARS-CoV-2 [9] and with SARS-CoV-2 [1] were 5.50 and 4.49, respectively.
`COC(=O)/C=C/CNC(=O)CNC(=O)[C@H](CN)NC(=O)[C@H](CCc1ccc(O)cc1)NC(C)=O` showed an INH in series [10] of 100 µM.
On the same count and under the same terms, next, `COC(=O)/C=C/CNC(=O)CNC(=O)[C@H](CN)NC(=O)[C@H](CCc1nc2ccccc2s1)NC(C)=O`: 100 µM.
As for `C[C@H]1COC2=C1C(=O)C(=O)c1c2ccc2c1CCCC2(C)C` [CRYPTOTANSHINONE], the pEC50 with SARS-CoV-2 [1] is less than 3.70. The CC50 at 24 h in series [11] is more than 300 µM.
`Cc1cccc2c3c(ccc12)C1=C(C(=O)C3=O)[C@@H](C)CO1` [DIHYDROTANSHINONE I]: the pEC50 with SARS-CoV-2 [1] was 5.09.
Broadly, the pIC50 is the IC50 on a negative log10 scale, so that one unit is a factor of ten. As to `Nc1ccc2cc3ccc(N)cc3nc2c1` [PROFLAVINE], the pIC50 in [12] is 6.98; in series [15], 7.68. Further, the CC50 was 3.4 µM in series [13] and 3.1 µM in the series on A549. The selectivity ratio is 53 in series [14] and 36 in series [16]. In addition, the pEC50 was 7.07 in the series on SARS-CoV-2 [17] and 7.19 in the series on SARS-CoV-2 [18].
With `Cc1coc2c1C(=O)C(=O)c1c-2ccc2c1CCCC2(C)C` [TANSHINONE IIA], the pEC50 with SARS-CoV-2 [1] was less than 3.70.
For `Cc1coc2c1C(=O)C(=O)c1c-2ccc2c(C)cccc12` [TANSHINONE I], the CC50 at 24 h in series [11] is more than 200 µM.
For `Nc1nc2nc[nH]c2c(=S)[nH]1` [THIOGUANINE], in [19], the CC50 came to 35.5 µM.
